Assay results from patent US20260284014A1, “3,5-DIAMINOTRIAZOLE DERIVATIVES AND USES THEREOF FOR TREATING OCULAR DISEASES” (CENTRE NATIONAL DE LA RECHERCHE SCIENTIFIQUE, priority 2023, published 2026).
“Also recorded” adds a separate entry of the source.

How the values were obtained:
ARPE-19 cells = experiment: Cell viability (XTT assay); type: cell-based; details: Homo sapiens, 48 h, read-out: A. Safety IC50 on ARPE-19 cells
Description: ARPE-19 cells were incubated in a 96-well plate with different effectors for 48 hours. Fifty microliters of sodium 3′-[1-phenylaminocarbonyl)-3,4-tetrazolium]-bis(4-methoxy-6-nitro) benzene sulfonic acid hydrate (XTT) reagent was added to each well. The test is based on the cleavage of the yellow tetrazolium salt XTT to form an orange formazan dye by metabolically active cells. This bio-reduction occurs in viable cells only and is associated with NAD(P)H production through glycolysis. Therefore, the amount of formazan dye measured at 490 nm, correlates directly with the number of metabolically active cells reflecting cell proliferation, viability, and cytotoxicity. Each assay was performed in quadruplicate.
(§1) All compounds were evaluated in different experiments. Results are represented as the mean of three independent experiments. A. ARPE-19 cells were treated with dose response of compound for 48 h. Values are reported as IC50 measured with the XTT assay. B and C. ARPE-19 cells were treated with 5 μM (B) or 1 μM (C) compound then with 200 μM H2O2 for 2 h. ROS were analyzed by cytometry. […] As illustrated in FIG. 1A. D. ARPE-19 cells were treated with 2.5 μM compound for 48 h and the level of CXCL1 mRNA was evaluated by qPCR. […] As illustrated in FIG. 1B. E. TIME cells were pre-treated with 2.5 μM compound for 1 h then stimulated with 100 ng/ml CXCL8 for 15 min p-ERK levels were analyzed by immunoblotting. HSP90 served as loading control. […] As illustrated in FIG. 1C.

ROS = ROS labeling by cytometry after H2O2; type: cell-based; details: for inhibition at 1 µM / inhibition at 5 µM: Homo sapiens, ARPE-19; for inhibition at 1 µM: 1 μM compound then 200 μM H2O2 for 2 h, read-out: C. ROS inhibition 1 μM - ARPE-19 cells; for inhibition at 5 µM: 5 μM compound then 200 μM H2O2 for 2 h, read-out: B. ROS inhibition 5 μM - ARPE-19 cells
Description: ARPE-19 cells were treated with MCK349 30 minutes then with 200 μM H2O2 for 2 h. 10 μM DCF-DA (2′,7′-Dichlorofluorescein diacetate) were added on cell media for 30 min. Cells were rinsed then detached (trypsin) and resuspended in PBS 0.5% BSA and 2 mM EDTA. The cells are analyzed by cytometry (ROS labeled with DCFDA-FITC).
as §1

ERK activation (p-ERK) = experiment: p-ERK immunoblotting after CXCL8 stimulation; type: cell-based; details: 2.5 μM compound 1 h then 100 ng/ml CXCL8 for 15 min; read-out: E. p-ERK inhibition - TIME
Description: Cells were lysed in buffer containing 3% SDS, 10% glycerol and 0.825 mM Na2HPO4. 30 to 50 μg of proteins separated on 10% SDS-PAGE, transferred onto a PVDF membrane and then exposed to the appropriate antibodies. Proteins were visualized with the ECL system using horseradish peroxidase-conjugated anti-rabbit or anti-mouse antibodies.
as §1

[1] = test system: pro-inflammatory cytokines; experiment: LPS stimulated whole blood, multiplex ELISA; type: cell-based; details: human whole blood, 5 or 10 μM 1 h prior to 10 ng/ml LPS for 18 h
Description: Human peripheral […] were obtained from healthy donors with informed consent following the Declaration of Helsinki according to recommendations of an independent scientific review board. The project has been validated by The Etablissement Français du Sang, the French national agency for blood collection (protocol 7952NQ). Blood samples were collected using ethylene diamine tetraacetic acid-containing tubes.
Whole blood will be removed from a single donor (K3-EDTA) and diluted 1:5 with RPMI 1640. Within 30 minutes of sampling, blood will be incubated with 5 or 10 μM MCK349 for 1 h prior to 10 ng/ml LPS stimulation for 18 h. Blood is centrifuged to recover plasma and cytokines are analyzed by multiplex ELISA (Meso Scale Discovery).
(§2) Cytokines from plasma (whole blood) or supernatant (ARPE-19 cells) were analyzed by multiplex ELISA. A multiplex ELISA was designed from U-PLEX Biomarker Group 1 (hu) Assays (K15069L-1). The protocol performed follows the instructions of the supplier.

[2] = test system: pro-inflammatory, pro-angiogenic and/or pro-fibrotic mRNA markers; experiment: ARPE-19 stimulation to mimic diabetic retinopathy in vitro, mRNA by qPCR; type: cell-based; details: ARPE-19, high glucose + cytokines, 5 or 10 μM
Description: One microgram of total RNA was used for the reverse transcription, using the QuantiTect Reverse Transcription kit (QIAGEN, Hilden, Germany), with blend of oligo (dT) and random primers to prime first-strand synthesis. SYBR master mix plus (Eurogentec) was used for qPCR. The mRNA level was normalized to 36B4 mRNA
(§3) ARPE-19 cells were cultured in hyperglycaemic conditions (D-glucose, 25 mmol/l) for 16 days at 37° C. under 5% CO2 in medium (DMEM/F12) supplemented with 10% FBS and 1% penicillin. On day 16, cells were pre-treated with MCK349. On day 17, cells were washed and treated with MCK349 and cytokines (10 ng/ml IL1ß, 25 ng/ml VEGF and 25 ng/ml TNFα) for 24 h. Cytokines are analyzed by multiplex ELISA (Meso Scale Discovery) on the supernatant. Cells were recovered to analyze the mRNA level of different markers by qPCR.

[3] = test system: pro-inflammatory, pro-angiogenic and/or pro-fibrotic cytokines; experiment: ARPE-19 stimulation to mimic diabetic retinopathy in vitro, cytokines by multiplex ELISA; type: cell-based; details: ARPE-19, high glucose + cytokines, 5, 10, or 25 μM
Description: as §3, §2

[4] = test system: ocular (retinal) neo-angiogenesis; experiment: Hypoxia-induced retinal neo-angiogenesis in zebrafish; type: in vivo; details: hypoxia 5% oxygen 72 h, 0.25, 0.5, or 1 μM
Description: All animal experiments were approved by the Experimental Animal Ethical Committee. Transgenic zebrafish embryos (fli: EGFP, blood vessels marked in GFP) were raised at 28° C. under standard experimental conditions. Zebrafish embryos at the age of 24 hpf were incubated in aquarium water containing 0.2 mmol/L 1-phenyl-2-thio-urea (PTU, Sigma). At 48-hpf, zebrafish embryos were placed for 72 h in normoxia (Nx) or hypoxia 5% oxygen […], in the presence of treatment. Retinal neo-angiogenesis was analyzed by fluorescent confocal microscope and quantified by ImageJ.

TIME cells [5] = experiment: Vessels formation assay on Matrigel; type: cell-based; details: 5 or 10 μM
Description: 300 μL of Matrigel Matrix were coated in 24-well plates and put 1 h a 37° C. Then Time cells were plated (300 000 cells/well). Plates were then incubated at 37° C., 5% CO2 for 24 hours. Representative images were taken with the Evos XL Core Cell Imaging System at low magnification (4×).

TIME cells [6] = experiment: Endothelial cells proliferation; type: cell-based; details: 72 h
Description: TIME cells were plated in 12-well plates (25 000 cells/well) in 0.5% SVF media and then stimulated with 100 ng/mL CXCL8 or CXCL7 for 72 h. Cell proliferation is assessed by cell count. The results are expressed as % of day 0 relative to the condition tested.

[7] = test system: choroidal neovascularization (CNV); experiment: Laser induced choroidal neovascularization and vascular leakage in mice; type: in vivo; details: intravitreal 52 μg/ml (2 μl) four times, Day 9 and 15
Description: Laser photocoagulation (shoot retina with laser beam (50 μm, 0.1 s, and 250~300 mW or any other parameters reasonable) for 4 spots avoiding blood vessels) were performed binocularly on each animal at Day 1 on male C57 mice (8 mice per group).
Vehicle and MCK349 (52 μg/ml) were delivered by binocular intravitreal injection (2 μl) four times in total. Once on Day 1 (right after modeling), Day 4, Day 7 and Day 11. Optical Coherence Tomography (OCT) was performed once on modeling day right after laser photocoagulation and once on Day 9 and Day 15. CNV volume of each lesion will be measured. Fundus Fluorescein Angiography (FFA) was conducted once on Day 9 and Day 15. The angiograms will be graded as follows: Grade 0, no bright hyperfluorescence; Grade 1, hyperfluorescence without leakage; Grade 2a, hyperfluorescence and late leakage; and Grade 2b, bright hyperfluorescence and late leakage beyond treated areas.

SMILES | IC50 (ARPE-19 cells) [µM] | inhibition at 1 µM (ROS) [%] | inhibition at 5 µM (ROS) [%] | inhibition at 2.5 µM (ERK activation (p-ERK)) [%] | pro-inflammatory cytokines induced by LPS stimulation in whole blood [1] | expression (mRNA) of pro-angiogenic and/or pro-inflammatory cytokines in diabetic retinopathy model in vitro [2] | secretion of pro-angiogenic and/or pro-inflammatory cytokines in diabetic retinopathy model in vitro [3] | ocular (retinal) neo-angiogenesis in zebrafish [4] | ocular (retinal) neo-angiogenesis in zebrafish ([4]; listed as MC342) | oxidative stress (ROS) inhibition (ROS; ARPE-19, 1 μM MCK349 then 200 μM H2O2 for 2 h) | vessel formation on matrigel (TIME cells [5]) | endothelial cell proliferation induced by CXCL7 (TIME cells [6]; 100 ng/mL CXCL7, 0.1, 0.2 or 0.5 μM) | endothelial cell proliferation induced by CXCL8 (TIME cells [6]; 100 ng/mL CXCL8, 0.1, 0.2 or 0.5 μM) | choroidal neovascularization (CNV) [7] | vascular leakage (FFA grade 2b lesions) [7]
Cc1ccc(Nc2nc(N)n(Cc3cccc(Br)c3)n2)cc1 [MCK342, 1-(3-bromobenzyl)-N^3-(4-methylphenyl)-1H-1,2,4-triazole-3,5-diamine] | > 25 | ≥ 50 | ≥ 50 | < 50 | inhibit pro-inflammatory cytokines | inhibit the expression | inhibit the expression (mRNA, FIG. 3) and secretion | inhibit ocular neoangiogenesis | inhibit ocular (retinal) neo-angiogenesis |  |  |  |  |  | 
Nc1nc(Nc2ccc(Cl)c(Cl)c2)nn1Cc1cccc(Br)c1 [MCK349, 1-(3-bromobenzyl)-N^3-(3,4-dichlorophenyl)-1H-1,2,4-triazole-3,5-diamine] | > 25 | ≥ 50 | ≥ 50 | ≥ 50 | inhibit pro-inflammatory cytokines | inhibits pro-inflammatory, pro-angiogenic and/or pro-fibrotic mRNA markers; also recorded: inhibit the expression | inhibits pro-inflammatory, pro-angiogenic and/or pro-fibrotic cytokines; also recorded: inhibit the expression (mRNA, FIG. 3) and secretion | inhibit ocular (retinal) neo-angiogenesis; also recorded: inhibit ocular neoangiogenesis |  | inhibits oxidative stress | inhibiting vessel formation on matrigel | inhibiting endothelial cell proliferation | inhibiting endothelial cell proliferation induced by CXCL8 | inhibits vascular leakage (FIGS. 9A and B) and neovascularization; also recorded: inhibits choroidal neovascularization (CNV) | inhibits choroidal neovascularization (CNV) and vascular leakage
